According to PubChem BioAssay (NCI):
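Interpolation was linear, between the two tested concentrations surrounding the appropriate level; five concentrations were tested over 48 hours in 96-well plates. TGI: total growth inhibition.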

tested on: MDA-N; assay: growth of human tumour cells (NCI), 48 h

Row | Structure (SMILES) | TGI
1 | N#Cc1c(-c2ccccc2)[nH]c2ccccc2c1=O | > 100 µM
2 | O/N=C\c1c(O)ccc2ccccc12 | > 100 µM
3 | CCOC(=O)c1csc(NC(=O)C(C)N2CCCCC2)n1 (stereo unspecified) | > 100 µM
4 | CC1=NC(=Cc2ccc(O)cc2)C(=O)N1n1c(-c2ccccc2)nc2ccccc2c1=O | > 100 µM
5 | COc1ccc2c(c1)CN1C(=N2)CSC1c1cc([N+](=O)[O-])ccc1Cl (stereo unspecified) | > 100 µM
6 | N#Cc1sc2nc(/C=C3/C=CC=CC3=O)c(O)n2c1N | > 100 µM
7 | NS(=O)(=O)c1ccc(-n2c(-c3cccs3)nc3ccc(I)cc3c2=O)cc1 | > 100 µM
8 | Cc1cccc2c1Oc1cc(Cl)ccc1C2NC(=O)CCN1CCOCC1 (stereo unspecified) | > 100 µM

tested on: PC-3 prostate; assay: growth of human tumour cells (NCI), 48 h

Row | Structure (SMILES) | TGI
9 | N#Cc1c(-c2ccccc2)[nH]c2ccccc2c1=O | > 100 µM
10 | O/N=C\c1c(O)ccc2ccccc12 | > 100 µM
11 | CCOC(=O)c1csc(NC(=O)C(C)N2CCCCC2)n1 (stereo unspecified) | > 100 µM
12 | CC1=NC(=Cc2ccc(O)cc2)C(=O)N1n1c(-c2ccccc2)nc2ccccc2c1=O | > 100 µM
13 | COc1ccc2c(c1)CN1C(=N2)CSC1c1cc([N+](=O)[O-])ccc1Cl (stereo unspecified) | > 100 µM
14 | N#Cc1sc2nc(/C=C3/C=CC=CC3=O)c(O)n2c1N | > 100 µM
15 | NS(=O)(=O)c1ccc(-n2c(-c3cccs3)nc3ccc(I)cc3c2=O)cc1 | 81.9 µM
16 | Cc1cccc2c1Oc1cc(Cl)ccc1C2NC(=O)CCN1CCOCC1 (stereo unspecified) | > 100 µM

tested on: HCC-2998 colon; assay: growth of human tumour cells (NCI), 48 h

Row | Structure (SMILES) | TGI
17 | O/N=C\c1c(O)ccc2ccccc12 | > 100 µM
18 | CCOC(=O)c1csc(NC(=O)C(C)N2CCCCC2)n1 (stereo unspecified) | > 100 µM
19 | CC1=NC(=Cc2ccc(O)cc2)C(=O)N1n1c(-c2ccccc2)nc2ccccc2c1=O | > 100 µM
20 | COc1ccc2c(c1)CN1C(=N2)CSC1c1cc([N+](=O)[O-])ccc1Cl (stereo unspecified) | 58.7 µM
21 | N#Cc1sc2nc(/C=C3/C=CC=CC3=O)c(O)n2c1N | > 100 µM
22 | NS(=O)(=O)c1ccc(-n2c(-c3cccs3)nc3ccc(I)cc3c2=O)cc1 | 39.9 µM
23 | Cc1cccc2c1Oc1cc(Cl)ccc1C2NC(=O)CCN1CCOCC1 (stereo unspecified) | > 100 µM

tested on: OVCAR-4 ovarian; assay: growth of human tumour cells (NCI), 48 h

Row | Structure (SMILES) | TGI
24 | N#Cc1c(-c2ccccc2)[nH]c2ccccc2c1=O | > 100 µM
25 | CCOC(=O)c1csc(NC(=O)C(C)N2CCCCC2)n1 (stereo unspecified) | > 100 µM
26 | COc1ccc2c(c1)CN1C(=N2)CSC1c1cc([N+](=O)[O-])ccc1Cl (stereo unspecified) | > 100 µM
27 | N#Cc1sc2nc(/C=C3/C=CC=CC3=O)c(O)n2c1N | > 100 µM
28 | NS(=O)(=O)c1ccc(-n2c(-c3cccs3)nc3ccc(I)cc3c2=O)cc1 | 86.3 µM
29 | Cc1cccc2c1Oc1cc(Cl)ccc1C2NC(=O)CCN1CCOCC1 (stereo unspecified) | > 100 µM

tested on: MDA-MB-231 breast; assay: growth of human tumour cells (NCI), 48 h

Row | Structure (SMILES) | TGI
30 | N#Cc1c(-c2ccccc2)[nH]c2ccccc2c1=O | > 100 µM
31 | O/N=C\c1c(O)ccc2ccccc12 | > 100 µM
32 | CCOC(=O)c1csc(NC(=O)C(C)N2CCCCC2)n1 (stereo unspecified) | > 100 µM
33 | CC1=NC(=Cc2ccc(O)cc2)C(=O)N1n1c(-c2ccccc2)nc2ccccc2c1=O | > 100 µM
34 | COc1ccc2c(c1)CN1C(=N2)CSC1c1cc([N+](=O)[O-])ccc1Cl (stereo unspecified) | > 100 µM
35 | N#Cc1sc2nc(/C=C3/C=CC=CC3=O)c(O)n2c1N | > 100 µM
36 | Cc1cccc2c1Oc1cc(Cl)ccc1C2NC(=O)CCN1CCOCC1 (stereo unspecified) | > 100 µM

tested on: IGROV1 ovarian; assay: growth of human tumour cells (NCI), 48 h

Row | Structure (SMILES) | TGI
37 | N#Cc1c(-c2ccccc2)[nH]c2ccccc2c1=O | > 100 µM
38 | CCOC(=O)c1csc(NC(=O)C(C)N2CCCCC2)n1 (stereo unspecified) | > 100 µM
39 | CC1=NC(=Cc2ccc(O)cc2)C(=O)N1n1c(-c2ccccc2)nc2ccccc2c1=O | > 100 µM
40 | COc1ccc2c(c1)CN1C(=N2)CSC1c1cc([N+](=O)[O-])ccc1Cl (stereo unspecified) | > 100 µM
41 | N#Cc1sc2nc(/C=C3/C=CC=CC3=O)c(O)n2c1N | > 100 µM
42 | NS(=O)(=O)c1ccc(-n2c(-c3cccs3)nc3ccc(I)cc3c2=O)cc1 | 56 µM
43 | Cc1cccc2c1Oc1cc(Cl)ccc1C2NC(=O)CCN1CCOCC1 (stereo unspecified) | > 100 µM

tested on: COLO 205 colon; assay: growth of human tumour cells (NCI), 48 h

Row | Structure (SMILES) | TGI
44 | N#Cc1c(-c2ccccc2)[nH]c2ccccc2c1=O | > 100 µM
45 | O/N=C\c1c(O)ccc2ccccc12 | > 100 µM
46 | CCOC(=O)c1csc(NC(=O)C(C)N2CCCCC2)n1 (stereo unspecified) | > 100 µM
47 | CC1=NC(=Cc2ccc(O)cc2)C(=O)N1n1c(-c2ccccc2)nc2ccccc2c1=O | > 100 µM
48 | COc1ccc2c(c1)CN1C(=N2)CSC1c1cc([N+](=O)[O-])ccc1Cl (stereo unspecified) | 92.4 µM
49 | N#Cc1sc2nc(/C=C3/C=CC=CC3=O)c(O)n2c1N | > 100 µM
50 | NS(=O)(=O)c1ccc(-n2c(-c3cccs3)nc3ccc(I)cc3c2=O)cc1 | 40.3 µM
51 | Cc1cccc2c1Oc1cc(Cl)ccc1C2NC(=O)CCN1CCOCC1 (stereo unspecified) | > 100 µM

tested on: NCI-H23 lung; assay: growth of human tumour cells (NCI), 48 h

Row | Structure (SMILES) | TGI
52 | O/N=C\c1c(O)ccc2ccccc12 | > 100 µM
53 | CCOC(=O)c1csc(NC(=O)C(C)N2CCCCC2)n1 (stereo unspecified) | > 100 µM
54 | CC1=NC(=Cc2ccc(O)cc2)C(=O)N1n1c(-c2ccccc2)nc2ccccc2c1=O | > 100 µM
55 | COc1ccc2c(c1)CN1C(=N2)CSC1c1cc([N+](=O)[O-])ccc1Cl (stereo unspecified) | > 100 µM
56 | N#Cc1sc2nc(/C=C3/C=CC=CC3=O)c(O)n2c1N | > 100 µM
57 | NS(=O)(=O)c1ccc(-n2c(-c3cccs3)nc3ccc(I)cc3c2=O)cc1 | 51.1 µM
58 | Cc1cccc2c1Oc1cc(Cl)ccc1C2NC(=O)CCN1CCOCC1 (stereo unspecified) | > 100 µM

tested on: SNB-75 CNS; assay: growth of human tumour cells (NCI), 48 h

Row | Structure (SMILES) | TGI
59 | N#Cc1c(-c2ccccc2)[nH]c2ccccc2c1=O | 38.3 µM
60 | O/N=C\c1c(O)ccc2ccccc12 | > 100 µM
61 | CCOC(=O)c1csc(NC(=O)C(C)N2CCCCC2)n1 (stereo unspecified) | > 100 µM
62 | CC1=NC(=Cc2ccc(O)cc2)C(=O)N1n1c(-c2ccccc2)nc2ccccc2c1=O | > 100 µM
63 | COc1ccc2c(c1)CN1C(=N2)CSC1c1cc([N+](=O)[O-])ccc1Cl (stereo unspecified) | > 100 µM
64 | N#Cc1sc2nc(/C=C3/C=CC=CC3=O)c(O)n2c1N | > 100 µM
65 | NS(=O)(=O)c1ccc(-n2c(-c3cccs3)nc3ccc(I)cc3c2=O)cc1 | 87.4 µM
66 | Cc1cccc2c1Oc1cc(Cl)ccc1C2NC(=O)CCN1CCOCC1 (stereo unspecified) | > 100 µM

tested on: UO-31 renal; assay: growth of human tumour cells (NCI), 48 h

Row | Structure (SMILES) | TGI
67 | CCOC(=O)c1csc(NC(=O)C(C)N2CCCCC2)n1 (stereo unspecified) | > 100 µM
68 | CC1=NC(=Cc2ccc(O)cc2)C(=O)N1n1c(-c2ccccc2)nc2ccccc2c1=O | > 100 µM
69 | COc1ccc2c(c1)CN1C(=N2)CSC1c1cc([N+](=O)[O-])ccc1Cl (stereo unspecified) | > 100 µM
70 | N#Cc1sc2nc(/C=C3/C=CC=CC3=O)c(O)n2c1N | > 100 µM
71 | NS(=O)(=O)c1ccc(-n2c(-c3cccs3)nc3ccc(I)cc3c2=O)cc1 | 42.6 µM
72 | Cc1cccc2c1Oc1cc(Cl)ccc1C2NC(=O)CCN1CCOCC1 (stereo unspecified) | > 100 µM

tested on: SN12C renal; assay: growth of human tumour cells (NCI), 48 h

Row | Structure (SMILES) | TGI
73 | N#Cc1c(-c2ccccc2)[nH]c2ccccc2c1=O | > 100 µM
74 | O/N=C\c1c(O)ccc2ccccc12 | > 100 µM
75 | CC1=NC(=Cc2ccc(O)cc2)C(=O)N1n1c(-c2ccccc2)nc2ccccc2c1=O | > 100 µM
76 | COc1ccc2c(c1)CN1C(=N2)CSC1c1cc([N+](=O)[O-])ccc1Cl (stereo unspecified) | > 100 µM
77 | N#Cc1sc2nc(/C=C3/C=CC=CC3=O)c(O)n2c1N | > 100 µM
78 | NS(=O)(=O)c1ccc(-n2c(-c3cccs3)nc3ccc(I)cc3c2=O)cc1 | 98.9 µM
79 | Cc1cccc2c1Oc1cc(Cl)ccc1C2NC(=O)CCN1CCOCC1 (stereo unspecified) | > 100 µM

tested on: SK-MEL-28 melanoma; assay: growth of human tumour cells (NCI), 48 h

Row | Structure (SMILES) | TGI
80 | N#Cc1c(-c2ccccc2)[nH]c2ccccc2c1=O | > 100 µM
81 | O/N=C\c1c(O)ccc2ccccc12 | > 100 µM
82 | CCOC(=O)c1csc(NC(=O)C(C)N2CCCCC2)n1 (stereo unspecified) | > 100 µM
83 | CC1=NC(=Cc2ccc(O)cc2)C(=O)N1n1c(-c2ccccc2)nc2ccccc2c1=O | > 100 µM
84 | N#Cc1sc2nc(/C=C3/C=CC=CC3=O)c(O)n2c1N | > 100 µM
85 | NS(=O)(=O)c1ccc(-n2c(-c3cccs3)nc3ccc(I)cc3c2=O)cc1 | 55.5 µM
86 | Cc1cccc2c1Oc1cc(Cl)ccc1C2NC(=O)CCN1CCOCC1 (stereo unspecified) | > 100 µM

tested on: U251 CNS; assay: growth of human tumour cells (NCI), 48 h

Row | Structure (SMILES) | TGI
87 | O/N=C\c1c(O)ccc2ccccc12 | > 100 µM
88 | CCOC(=O)c1csc(NC(=O)C(C)N2CCCCC2)n1 (stereo unspecified) | > 100 µM
89 | COc1ccc2c(c1)CN1C(=N2)CSC1c1cc([N+](=O)[O-])ccc1Cl (stereo unspecified) | > 100 µM
90 | N#Cc1sc2nc(/C=C3/C=CC=CC3=O)c(O)n2c1N | > 100 µM
91 | NS(=O)(=O)c1ccc(-n2c(-c3cccs3)nc3ccc(I)cc3c2=O)cc1 | 48.8 µM
92 | Cc1cccc2c1Oc1cc(Cl)ccc1C2NC(=O)CCN1CCOCC1 (stereo unspecified) | > 100 µM

tested on: OVCAR-3 ovarian; assay: growth of human tumour cells (NCI), 48 h

Row | Structure (SMILES) | TGI
93 | N#Cc1c(-c2ccccc2)[nH]c2ccccc2c1=O | > 100 µM
94 | O/N=C\c1c(O)ccc2ccccc12 | 66.7 µM
95 | CCOC(=O)c1csc(NC(=O)C(C)N2CCCCC2)n1 (stereo unspecified) | > 100 µM
96 | N#Cc1sc2nc(/C=C3/C=CC=CC3=O)c(O)n2c1N | > 100 µM
97 | NS(=O)(=O)c1ccc(-n2c(-c3cccs3)nc3ccc(I)cc3c2=O)cc1 | 35.1 µM
98 | Cc1cccc2c1Oc1cc(Cl)ccc1C2NC(=O)CCN1CCOCC1 (stereo unspecified) | > 100 µM

tested on: SK-MEL-5 melanoma; assay: growth of human tumour cells (NCI), 48 h

Row | Structure (SMILES) | TGI
99 | N#Cc1c(-c2ccccc2)[nH]c2ccccc2c1=O | > 100 µM
100 | O/N=C\c1c(O)ccc2ccccc12 | > 100 µM
101 | CCOC(=O)c1csc(NC(=O)C(C)N2CCCCC2)n1 (stereo unspecified) | > 100 µM
102 | CC1=NC(=Cc2ccc(O)cc2)C(=O)N1n1c(-c2ccccc2)nc2ccccc2c1=O | > 100 µM
103 | COc1ccc2c(c1)CN1C(=N2)CSC1c1cc([N+](=O)[O-])ccc1Cl (stereo unspecified) | > 100 µM
104 | N#Cc1sc2nc(/C=C3/C=CC=CC3=O)c(O)n2c1N | > 100 µM
105 | NS(=O)(=O)c1ccc(-n2c(-c3cccs3)nc3ccc(I)cc3c2=O)cc1 | 47.1 µM
106 | Cc1cccc2c1Oc1cc(Cl)ccc1C2NC(=O)CCN1CCOCC1 (stereo unspecified) | > 100 µM
